Measurements from BigSolDB 2.1.

Cc1ccc(Nc2nccc(N(C)c3ccc4c(C)n(C)nc4c3)n2)cc1S(N)(=O)=O
solubility (mole fraction)
Details	288.15 K	293.15 K	298.15 K	303.15 K	308.15 K	313.15 K	318.15 K	323.15 K	328.15 K
in acetonitrile	1.08e-06	3.07e-06	5.16e-06	7.86e-06	1.11e-05	1.44e-05	1.8e-05	2.21e-05	2.72e-05
in n-butanol	1.07e-05	1.46e-05	1.88e-05	2.34e-05	2.86e-05	3.42e-05	4.04e-05	4.7e-05	5.43e-05
in n-propanol	9.96e-06	1.33e-05	1.67e-05	2.09e-05	2.55e-05	3.1e-05	3.65e-05	4.39e-05	5.11e-05
